Measurements: US20220117938A1, “COMBINATON THERAPY WITH A DON PRODRUG AND AN IMMUNE CHECKPOINT INHIBITOR” (DRACEN PHARMACEUTICALS, INC., priority 2019, published 2022)

Tested on: MC-38 tumors
Experiment: Anti-tumor efficacy of Compound 1 with and without anti-PD-1 in the subcutaneous MC-38 model (Example 4)
Assay type: in vivo, Mus musculus
Conditions: for MST: endpoint tumor volume 2000 mm^3; for T/C / TGI: Day 12
Experimental: Tumor sizes were measured three times a week in two dimensions using a caliper, and the volume expressed in mm^3 using the formula: V=0.5 a×b^2 where a and b are the long and short diameters of the tumor, respectively. The tumor sizes were then used for the calculations of both tumor growth inhibition (TGI) and T/C values.
TGI is calculated for each group using the formula: […]
TVTreatment_DayN is the average tumor volume of a treatment group on a given day, TVTreatment_Day0 is the average tumor volume of the treatment group on the first day of treatment, TVVehicle_DayN is the average tumor volume of the vehicle control group on a given day, and TVVehicle_Day0 is the average tumor volume of the vehicle group on the first day of treatment.
The T/C value (in percent) is an indication of antitumor effectiveness, T/C (%)=RTVTreatment/RTVControl×100% (RTVTreatment: the mean RTV of the treatment group; RTVControl: the mean RTV of the vehicle treated group). RTV (relative tumor volume)=TVDayN/TVDay0. TVDayN and TVDay0 is the tumor volume on day N and Day 0 respectively. T/C (%)≤42% is considered as significant antitumor activity and <10% is considered as highly significant antitumor activity by the National Cancer Institute criteria.
Animal survival curve: When an individual animal reached to the termination endpoint (TV>2000 mm^3), the mouse was euthanized. The time from treatment initiation to the termination was deemed as its survival time. Survival curve was plotted by Kaplan-Meier method. Median survival time (MST) was calculated for each group. Increase of life span (ILS) was calculated according to the following formula: […]
ILS (%)>25% is considered as a biologically significant survival benefit.
The tumor volume between different groups was analyzed by two-way repeated measures ANOVA. Dunnett post hoc test was used for the comparisons with vehicle group. All data analyzed using GraphPad Prism 6.0. P<0.05 is considered to be statistically significant.
Female C57BL/6 mice were inoculated subcutaneously at right flank with MC-38 cells for tumor development. Six days after tumor inoculation, 64 mice with tumor size ranging from 50-100 mm^3 (average tumor size 71 mm^3) were selected and assigned into 8 groups using stratified randomization with 8 mice per group based upon their tumor volumes. The treatments were started from the day of randomization (defined as D0), Group 1 was treated with Vehicle (Tween 80:Ethanol:Saline—5:5:90 v/v/v), s.c., qd×14, Group 2 was treated with Anti-PD-1 10 mg/kg i.p. q4d×4, Group 3 was treated with Compound 1 3 mpk qd×5, sc followed by 1 mpk, qd×9, sc, Group 4 was treated with Compound 1 3 mpk qd×5, sc followed by 1 mpk, qd×9, sc+anti PD-1 q4d×4, ip, Group 5 was treated with Compound 1 1 mpk qd×5, sc followed by 0.3 mpk, qd×9, sc, Group 6 was treated with Compound 1 1 mpk qd×5, sc followed by 0.3 mpk, qd×9, sc+anti PD-1 q4d×4, ip, Group 7 was treated with Compound 1 0.3 mpk qd×5, sc followed by 0.1 mpk, qd×9, sc and Group 8 was treated with Compound 1 0.3 mpk qd×5, sc followed by 0.1 mpk, qd×9, sc+anti PD-1 q4d×4, ip. The tumor sizes were measured three times per week during the treatment. The entire study was terminated on D56 after start of the treatment. […]
The MC-38 tumor cells were maintained in vitro as a monolayer culture in DMEM medium supplemented with 10% heat inactivated fetal bovine serum and 100 μg/mL penicillin streptomycin at 37° C. in an atmosphere of 5% CO2 in air. The tumor cells were routinely subcultured twice weekly by trypsin-EDTA treatment. The cells growing to a confluency around 70%-80% were harvested and counted for tumor inoculation. The cultured MC-38 were harvested, re-suspended in base medium at a density of 1×10^7 cells/mL with viability >90%. Each mouse was inoculated subcutaneously at the right flank with 1×10^6 cells in 0.1 ml base medium for tumor development. […]

CC(=O)N[C@@H](Cc1c[nH]c2ccccc12)C(=O)N[C@@H](CCC(=O)C=[N+]=[N-])C(=O)OC(C)C [Compound 1, Isopropyl (S)-2-((S)-2-acetamido-3-(1H-indol-3-yl)propanamido)-6-diazo-5-oxohexanoate]
ILS (Cpd. 1 0.3 mpk/0.1 mpk): 114.29%
RTV at day 12 (Cpd. 1 0.3 mpk/0.1 mpk): 1.67 ± 0.03
MST (Cpd. 1 0.3 mpk/0.1 mpk): 30 days
ILS (Cpd. 1 1 mpk/0.3 mpk): 135.71%
RTV at day 12 (Cpd. 1 1 mpk/0.3 mpk): 0.36 ± 0.09
MST (Cpd. 1 1 mpk/0.3 mpk): 33 days
ILS (Cpd. 1 3 mpk/1 mpk): 135.71%
RTV at day 12 (Cpd. 1 3 mpk/1 mpk): 0.11 ± 0.03
MST (Cpd. 1 3 mpk/1 mpk): 33 days
T/C (Cpd. 1 0.3 mpk/0.1 mpk): 7.02%
TGI (Cpd. 1 0.3 mpk/0.1 mpk): 97.27%
T/C (Cpd. 1 1 mpk/0.3 mpk): 1.51%
TGI (Cpd. 1 1 mpk/0.3 mpk): 102.87%
T/C (Cpd. 1 3 mpk/1 mpk): 0.46%
TGI (Cpd. 1 3 mpk/1 mpk): 103.98%
